From ChEMBL document CHEMBL1201861, “Genomics of Drug Sensitity in Cancer screening data, Wellcome Trust Sanger Institute”

How the values were obtained:
[1] = test system: DU-145; experiment: cells; assay type: functional, cell-based; settings: Homo sapiens
Description: SANGER: Inhibition of human DU-145 cell growth in a cell viability assay.

[2] = test system: SNU-423; experiment: cells; assay type: functional, cell-based; settings: Homo sapiens
Description: SANGER: Inhibition of human SNU-423 cell growth in a cell viability assay.

[3] = test system: LB647-SCLC; experiment: cells; assay type: functional, cell-based; settings: Homo sapiens;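 further: cell growth inhibition, read out by a viability assay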
Description: SANGER: Inhibition of human LB647-SCLC cell growth in a cell viability assay.

[4] = test system: HT55; experiment: cells; assay type: functional, cell-based; settings: Homo sapiens;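 further: cell viability readout measuring growth inhibition of human HT55 cells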
Description: SANGER: Inhibition of human HT55 cell growth in a cell viability assay.

[5] = test system: HOS; experiment: cells; assay type: functional, cell-based; settings: Homo sapiens;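 further: growth inhibition of human HOS cells, read out with a cell viability assay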
Description: SANGER: Inhibition of human HOS cell growth in a cell viability assay.

[6] = test system: MDA-MB-175-VII; experiment: cells; assay type: functional, cell-based; settings: Homo sapiens
[7] = test system: UO-31; experiment: cells; assay type: functional, cell-based; settings: Homo sapiens
Description: SANGER: Inhibition of human U031 cell growth in a cell viability assay.

[8] = test system: Raji; experiment: cells; assay type: functional, cell-based; settings: Homo sapiens;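 further: cell viability assay measuring inhibition of Raji cell growth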
Description: SANGER: Inhibition of human Raji cell growth in a cell viability assay.

[9] = test system: U-698-M; experiment: cells; assay type: functional, cell-based; settings: Homo sapiens
Description: SANGER: Inhibition of human U-698-M cell growth in a cell viability assay.

[10] = test system: NCI-H727; experiment: cells; assay type: functional, cell-based; settings: Homo sapiens;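 further: growth inhibition of human NCI-H727 cells, read out with a cell viability assay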
Description: SANGER: Inhibition of human NCI-H727 cell growth in a cell viability assay.

[11] = test system: H4; experiment: cells; assay type: functional, cell-based; settings: Homo sapiens
Description: SANGER: Inhibition of human H4 cell growth in a cell viability assay.

[12] = test system: OE33; experiment: cells; assay type: functional, cell-based; settings: Homo sapiens;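 further: growth inhibition of human OE33 cells, measured by a cell viability assay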
Description: SANGER: Inhibition of human OE33 cell growth in a cell viability assay.

[13] = test system: BL-70; experiment: SANGER: Inhibition of human BL-70 cell growth in a cell viability assay.; assay type: functional, cell-based
[14] = test system: LU-99A; experiment: cells; assay type: functional, cell-based; settings: Homo sapiens;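 further: growth inhibition of LU-99A cells, read out with a cell viability assay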
Description: SANGER: Inhibition of human LU-99A cell growth in a cell viability assay.

[15] = test system: 8305C; experiment: cells; assay type: functional, cell-based; settings: Homo sapiens
Description: SANGER: Inhibition of human 8305C cell growth in a cell viability assay.

[16] = test system: ESS-1; experiment: cells; assay type: functional, cell-based; settings: Homo sapiens;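 further: growth inhibition of human ESS-1 cells, read out by a cell viability assay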
Description: SANGER: Inhibition of human ESS-1 cell growth in a cell viability assay.

[17] = test system: GDM-1; experiment: cells; assay type: functional, cell-based; settings: Homo sapiens;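 further: cell viability readout used to measure growth inhibition of human GDM-1 cells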
Description: SANGER: Inhibition of human GDM-1 cell growth in a cell viability assay.

[18] = test system: RERF-LC-MS; experiment: cells; assay type: functional, cell-based; settings: Homo sapiens;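 further: growth inhibition of human RERF-LC-MS cells, read out by a cell viability assay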
Description: SANGER: Inhibition of human RERF-LC-MS cell growth in a cell viability assay.

[19] = test system: YAPC; experiment: cells; assay type: functional, cell-based; settings: Homo sapiens;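 further: growth inhibition of YAPC cells, measured with a cell viability assay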
Description: SANGER: Inhibition of human YAPC cell growth in a cell viability assay.

[20] = test system: MDA-MB-415; experiment: cells; assay type: functional, cell-based; settings: Homo sapiens
[21] = test system: S-117; experiment: cells; assay type: functional, cell-based; settings: Homo sapiens
Description: SANGER: Inhibition of human S-117 cell growth in a cell viability assay.

[22] = test system: CAL-120; experiment: cells; assay type: functional, cell-based; settings: Homo sapiens;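 further: cell growth inhibition, read out as cell viability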
Description: SANGER: Inhibition of human CAL-120 cell growth in a cell viability assay.

[23] = test system: SK-MM-2; experiment: cells; assay type: functional, cell-based; settings: Homo sapiens;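 further: growth inhibition of human SK-MM-2 cells, read out with a cell viability assay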
Description: SANGER: Inhibition of human SK-MM-2 cell growth in a cell viability assay.

[24] = test system: EFM-19; experiment: cells; assay type: functional, cell-based; settings: Homo sapiens;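 further: growth inhibition of human EFM-19 cells, measured in a cell viability assay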
Description: SANGER: Inhibition of human EFM-19 cell growth in a cell viability assay.

[25] = test system: LK-2; experiment: cells; assay type: functional, cell-based; settings: Homo sapiens;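 further: growth inhibition of LK-2 cells, read out with a viability assay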
Description: SANGER: Inhibition of human LK-2 cell growth in a cell viability assay.

[26] = test system: NCI-H596; experiment: cells; assay type: functional, cell-based; settings: Homo sapiens;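 further: growth inhibition of NCI-H596 cells, read out with a cell viability assay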
Description: SANGER: Inhibition of human NCI-H596 cell growth in a cell viability assay.

[27] = test system: U-251; experiment: cells; assay type: functional, cell-based; settings: Homo sapiens;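 further: growth inhibition of human U-251 cells, read out through a cell viability assay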
Description: SANGER: Inhibition of human U251 cell growth in a cell viability assay.

[28] = test system: HCC38; experiment: cells; assay type: functional, cell-based; settings: Homo sapiens;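 further: cell viability assay on the human HCC38 cell line, with IC50 marking the concentration that inhibits cell growth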
Description: SANGER: Inhibition of human HCC38 cell growth in a cell viability assay.

[29] = test system: G-361; experiment: cells; assay type: functional, cell-based; settings: Homo sapiens
[30] = test system: A-431; experiment: cells; assay type: functional, cell-based; settings: Homo sapiens;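 further: growth inhibition of A-431 cells, determined with a cell viability read-out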
Description: SANGER: Inhibition of human A431 cell growth in a cell viability assay.

[31] = test system: MKN-45; experiment: cells; assay type: functional, cell-based; settings: Homo sapiens;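 further: growth inhibition of human MKN-45 cells, measured with a cell viability assay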
Description: SANGER: Inhibition of human MKN45 cell growth in a cell viability assay.

[32] = test system: IGROV-1; experiment: cells; assay type: functional, cell-based; settings: Homo sapiens;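 further: reduction of IGROV-1 cell growth, read out with a viability assay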
Description: SANGER: Inhibition of human IGROV-1 cell growth in a cell viability assay.

[33] = test system: CAL-12T; experiment: cells; assay type: functional, cell-based, Homo sapiens; settings: Homo sapiens, CAL-12T;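 further: growth inhibition of human CAL-12T cells, read out with a cell viability assay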
Description: SANGER: Inhibition of human CAL-12T cell growth in a cell viability assay.

[34] = test system: NCI-H1963; experiment: cells; assay type: functional, cell-based; settings: Homo sapiens;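 further: cell growth inhibition of the human line, determined with a cell viability assay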
Description: SANGER: Inhibition of human NCI-H1963 cell growth in a cell viability assay.

[35] = test system: JIYOYE; experiment: cells; assay type: functional, cell-based; settings: Homo sapiens
Description: SANGER: Inhibition of human JiyoyeP-2003 cell growth in a cell viability assay.

[36] = test system: CHP-126; experiment: cells; assay type: functional, cell-based; settings: Homo sapiens
Description: SANGER: Inhibition of human CHP-126 cell growth in a cell viability assay.

[37] = test system: HT-1080; experiment: cells; assay type: functional, cell-based; settings: Homo sapiens
Description: SANGER: Inhibition of human HT-1080 cell growth in a cell viability assay.

[38] = test system: CAPAN-1; experiment: cells; assay type: functional, cell-based; settings: Homo sapiens;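 further: growth suppression of CAPAN-1 cells, read out by a cell viability assay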
Description: SANGER: Inhibition of human CAPAN-1 cell growth in a cell viability assay.

[39] = test system: LC-1F; experiment: cells; assay type: functional, cell-based; settings: Homo sapiens;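 further: growth inhibition of human LC-1F cells, read out with a cell viability assay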
Description: SANGER: Inhibition of human LC-1F cell growth in a cell viability assay.

[40] = test system: A 172; experiment: cells; assay type: functional, cell-based; settings: Homo sapiens;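 further: growth inhibition of A172 cells, measured with a cell viability readout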
Description: SANGER: Inhibition of human A172 cell growth in a cell viability assay.

[41] = test system: MHH-CALL-2; experiment: cells; assay type: functional, cell-based; settings: Homo sapiens;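 further: growth inhibition of the cell line, read out in a cell viability assay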
Description: SANGER: Inhibition of human MHH-CALL-2 cell growth in a cell viability assay.

[42] = test system: G-402; experiment: cells; assay type: functional, cell-based; settings: Homo sapiens
Description: SANGER: Inhibition of human G-402 cell growth in a cell viability assay.

[43] = test system: Hs-578T; experiment: cells; assay type: functional, cell-based; settings: Homo sapiens
Description: SANGER: Inhibition of human Hs-578-T cell growth in a cell viability assay.

[44] = test system: SUP-T1; experiment: cells; assay type: functional, cell-based; settings: Homo sapiens;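 further: growth inhibition of human SUP-T1 cells, read out as cell viability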
Description: SANGER: Inhibition of human SUP-T1 cell growth in a cell viability assay.

[45] = test system: NCI-H661; experiment: cells; assay type: functional, cell-based; settings: Homo sapiens;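 further: cell viability assay read-out, IC50 being the concentration that inhibits growth of the cells by half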
Description: SANGER: Inhibition of human NCI-H661 cell growth in a cell viability assay.

[46] = test system: NCI-H2087; experiment: cells; assay type: functional, cell-based; settings: Homo sapiens;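 further: growth inhibition determined with a cell viability readout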
Description: SANGER: Inhibition of human NCI-H2087 cell growth in a cell viability assay.

[47] = test system: HGC-27; experiment: cells; assay type: functional, cell-based; settings: Homo sapiens;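 further: growth inhibition of human HGC-27 cells, read out in a cell viability assay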
Description: SANGER: Inhibition of human HGC-27 cell growth in a cell viability assay.

[48] = test system: SW1088; experiment: cells; assay type: functional, cell-based; settings: Homo sapiens;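 further: growth inhibition of human SW1088 cells, read out by a cell viability assay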
Description: SANGER: Inhibition of human SW1088 cell growth in a cell viability assay.

[49] = test system: A2780; experiment: cells; assay type: functional, cell-based; settings: Homo sapiens;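 further: growth inhibition of A2780 cells, read out with a cell viability assay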
Description: SANGER: Inhibition of human A2780 cell growth in a cell viability assay.

[50] = test system: SW837; experiment: cells; assay type: functional, cell-based; settings: Homo sapiens;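 further: growth inhibition of SW837 cells, determined with a cell viability assay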
Description: SANGER: Inhibition of human SW837 cell growth in a cell viability assay.

[51] = test system: MONO-MAC-6; experiment: cells; assay type: functional, cell-based; settings: Homo sapiens;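 further: cell viability assay measuring growth inhibition of human MONO-MAC-6 cells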
Description: SANGER: Inhibition of human MONO-MAC-6 cell growth in a cell viability assay.

[52] = test system: NCI-H441; experiment: cells; assay type: functional, cell-based; settings: Homo sapiens;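 further: growth inhibition of NCI-H441 cells, read out with a cell viability assay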
Description: SANGER: Inhibition of human NCI-H441 cell growth in a cell viability assay.

[53] = test system: A-427; experiment: cells; assay type: functional, cell-based; settings: Homo sapiens;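 further: growth inhibition of human A-427 cells, read out by a cell viability assay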
Description: SANGER: Inhibition of human A427 cell growth in a cell viability assay.

[54] = test system: COR-L105; experiment: cells; assay type: functional, cell-based; settings: Homo sapiens
Description: SANGER: Inhibition of human COR-L105 cell growth in a cell viability assay.

[55] = test system: CAL-33; experiment: cells; assay type: functional, cell-based; settings: Homo sapiens;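 further: growth inhibition of CAL-33 cells, read out with a cell viability assay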
Description: SANGER: Inhibition of human CAL-33 cell growth in a cell viability assay.

[56] = test system: DMS-273; experiment: cells; assay type: functional, cell-based; settings: Homo sapiens
Description: SANGER: Inhibition of human DMS-273 cell growth in a cell viability assay.

[57] = test system: SAOS-2; experiment: cells; assay type: functional, cell-based; settings: Homo sapiens;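 further: growth inhibition of human Saos-2 cells determined by a cell viability assay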
Description: SANGER: Inhibition of human Saos-2 cell growth in a cell viability assay.

[58] = test system: SCC-4; experiment: cells; assay type: functional, cell-based; settings: Homo sapiens;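 further: growth inhibition of human SCC-4 cells, read out as cell viability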
Description: SANGER: Inhibition of human SCC-4 cell growth in a cell viability assay.

[59] = test system: RT-112; experiment: cells; assay type: functional, cell-based; settings: Homo sapiens
Description: SANGER: Inhibition of human RT-112 cell growth in a cell viability assay.

[60] = test system: TE-441-T; experiment: cells; assay type: functional, cell-based; settings: Homo sapiens
Description: SANGER: Inhibition of human TE-441-T cell growth in a cell viability assay.

[61] = test system: DK-MG; experiment: cells; assay type: functional, cell-based; settings: Homo sapiens;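 further: growth inhibition of DK-MG cells, read out with a cell viability assay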
Description: SANGER: Inhibition of human DK-MG cell growth in a cell viability assay.

[62] = test system: LC4-1; experiment: cells; assay type: functional, cell-based; settings: Homo sapiens;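 further: growth inhibition of LC4-1 cells, read out with a cell viability assay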
Description: SANGER: Inhibition of human LC4-1 cell growth in a cell viability assay.

[63] = test system: MC-CAR; experiment: cells; assay type: functional, cell-based; settings: Homo sapiens;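 further: growth inhibition of the human MC-CAR cell line, read out by a cell viability assay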
Description: SANGER: Inhibition of human MC-CAR cell growth in a cell viability assay.

[64] = test system: 5637; experiment: cells; assay type: functional, cell-based; settings: Homo sapiens
Description: SANGER: Inhibition of human 5637 cell growth in a cell viability assay.

[65] = test system: C3A; experiment: cells; assay type: functional, cell-based; settings: Homo sapiens;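 further: growth inhibition of C3A human cells, quantified with a cell viability readout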
Description: SANGER: Inhibition of human C3A cell growth in a cell viability assay.

Which IC50 [1] does the source give for `C/C=C(/C)C(=O)O[C@H]1C(C)=C2[C@H]([C@@H]1OC(=O)CCCCCCC)[C@@](C)(OC(C)=O)C[C@H](OC(=O)CCC)[C@@]1(O)[C@H]2OC(=O)[C@@]1(C)O` [THAPSIGARGIN] here?
Its IC50 is 8.63 nM.

What about the IC50 [2] of the same compound?
The IC50 was < 2 nM.

What about the IC50 [3] of the same compound?
Its IC50 is 4.86 nM.

And the IC50 [4]?
Its IC50 is > 512 nM.

And the IC50 [5]?
The IC50 was 1.96 nM.

What about the IC50 [6] of the same compound?
Its IC50 is 330 nM.

What about the IC50 [7] of the same compound?
The IC50 was 57.7 nM.

What about the IC50 [8] of the same compound?
Its IC50 is 38.4 nM.

And the IC50 [9]?
Its IC50 is 77.4 nM.

What about the IC50 [10] of the same compound?
Its IC50 is 8.36 nM.

And the IC50 [11]?
Its IC50 is 1.98 nM.

What about the IC50 [12] of the same compound?
Its IC50 is 46.9 nM.

What about the IC50 [13] of the same compound?
Its IC50 is 8.82 nM.

And the IC50 [14]?
The IC50 was 1.36 nM.

And the IC50 [15]?
Its IC50 is 2.7 nM.

What about the IC50 [16] of the same compound?
Its IC50 is 7.58 nM.

What about the IC50 [17] of the same compound?
The IC50 was 230 nM.

And the IC50 [18]?
The IC50 was 1.37 nM.

What about the IC50 [19] of the same compound?
The IC50 was 89.6 nM.

And the IC50 [20]?
Its IC50 is > 512 nM.

And the IC50 [21]?
The IC50 was 40.9 nM.

And the IC50 [22]?
Its IC50 is 44.1 nM.

And the IC50 [23]?
Its IC50 is 45.6 nM.

What about the IC50 [24] of the same compound?
The IC50 was > 512 nM.

And the IC50 [25]?
Its IC50 is 1.46 nM.

What about the IC50 [26] of the same compound?
Its IC50 is 38.9 nM.

And the IC50 [27]?
The IC50 was < 2 nM.

What about the IC50 [28] of the same compound?
The IC50 was 1.37 nM.

And the IC50 [29]?
Its IC50 is 10.7 nM.

What about the IC50 [30] of the same compound?
Its IC50 is 4.11 nM.

What about the IC50 [31] of the same compound?
Its IC50 is 25.4 nM.

And the IC50 [32]?
The IC50 was < 2 nM.

And the IC50 [33]?
Its IC50 is < 2 nM.

And the IC50 [34]?
The IC50 was 66.2 nM.

What about the IC50 [35] of the same compound?
The IC50 was 7.21 nM.

And the IC50 [36]?
The IC50 was 29.8 nM.

And the IC50 [37]?
The IC50 was < 2 nM.

And the IC50 [38]?
Its IC50 is 13.5 nM.

And the IC50 [39]?
Its IC50 is 4.19 nM.

And the IC50 [40]?
The IC50 was < 2 nM.

What about the IC50 [41] of the same compound?
The IC50 was 468 nM.

What about the IC50 [42] of the same compound?
The IC50 was 3.95 nM.

What about the IC50 [43] of the same compound?
The IC50 was > 512 nM.

What about the IC50 [44] of the same compound?
The IC50 was 54.7 nM.

And the IC50 [45]?
The IC50 was 19.9 nM.

What about the IC50 [46] of the same compound?
The IC50 was 0.546 nM.

And the IC50 [47]?
The IC50 was < 2 nM.

And the IC50 [48]?
The IC50 was 324 nM.

What about the IC50 [49] of the same compound?
Its IC50 is < 2 nM.

What about the IC50 [50] of the same compound?
Its IC50 is 1.66 nM.

And the IC50 [51]?
Its IC50 is 3.8 nM.

What about the IC50 [52] of the same compound?
Its IC50 is 12.6 nM.

And the IC50 [53]?
Its IC50 is 2.12 nM.

And the IC50 [54]?
Its IC50 is 11.5 nM.

What about the IC50 [55] of the same compound?
Its IC50 is 30.7 nM.

What about the IC50 [56] of the same compound?
Its IC50 is < 2 nM.

What about the IC50 [57] of the same compound?
The IC50 was 14.7 nM.

What about the IC50 [58] of the same compound?
The IC50 was 10.4 nM.

And the IC50 [59]?
The IC50 was 4.22 nM.

And the IC50 [60]?
Its IC50 is 48.8 nM.

And the IC50 [61]?
Its IC50 is 47.2 nM.

And the IC50 [62]?
Its IC50 is 42.3 nM.

What about the IC50 [63] of the same compound?
Its IC50 is 24.4 nM.

And the IC50 [64]?
The IC50 was 11.4 nM.

What about the IC50 [65] of the same compound?
The IC50 was 30.3 nM.
